Data on 12 compounds can be found in US11718618B2, “Substituted pyrido[2,1-a]isoquinolines as VMAT2 inhibitors” (priority 2021, dated 2023).

Where only a bound is given, the exact number is not on record here.

A short description of data set [1]: Stability of compounds in human liver microsomes. To be noted: for CLint scaled at 0.5 μM / half-life at 0.5 μM: both sexes, pH 7.4; for CLint scaled at 0.5 μM: liver microsomes, calculated from HLM half-life, read-out: HLM Scaled Intrinsic Clearance; for CLint scaled at 0.5 μM / Predicted Max. Bioavailability (% F) / HLM Predicted Systemic Clearance: human; for half-life at 0.5 μM: 0.5 μM compound, 0.5 mg/mL human liver microsomes, 37° C., maxed at 420 minutes, read-out: HLM Elimination half-life (t1/2, min); for Predicted Max. Bioavailability (% F): predicted from HLM data; for HLM Predicted Systemic Clearance: scaled from HLM half-life (Obach method). It counts as in vitro ADME. The procedure:
A test compound (0.5 μM) was incubated with pooled mixed gender liver microsomes from humans (0.5 mg/mL total protein) at 37° C. in the presence of an NADPH-generating system containing 50 mM, pH 7.4 potassium phosphate buffer, 3 mM magnesium chloride, 1 mM EDTA, 1 mM NADP, 5 mM glusose-6-phosphate, and 1 Unit/mL glucose-6-phosphate dehydrogenase. All concentrations were relative to the final incubation volume of 125 μL. Incubations were conducted at 37° C. for 0, 5, 10, 20, 40, and 60 minutes in a water bath and terminated by rapid mixing with 150 μL of ice-cold acetonitrile containing internal standard. Precipitated proteins were removed by centrifugation prior to LC-MS/MS analysis. Aliquots of the resulting supernatant fractions were analyzed by LC-MS/MS monitoring for depletion of parent compound. The resultant peak area ratio versus time data was fitted to a non-linear regression using XLfit Scientific Curve Fitting Software (IDBS Ltd., Surrey, UK) and the elimination half-life (t1/2, min) was calculated from the slope. […] Additional values calculated included predicted extraction ratio and predicted maximum bioavailability.

For a further data set, the target named is human VMAT2 (Homo sapiens (Human), UniProt Q05940). Nature of the data set: VMAT2 radioligand binding, 3H-dihydrotetrabenazine competition on human platelet homogenate. To be noted: 10 nM 3H-dihydrotetrabenazine, human platelet homogenate, 25° C., 90 minutes; read-out: VMAT2 Ki. How it is done:
Examples of techniques for determining the capability of a compound to inhibit VMAT2 are provided below. The procedure was adapted from that described previously (see, e.g., Near, (1986), Mol. Pharmacol. 30: 252-57; Teng, et al., J. Neurochem. 71, 258-65, 1998). Homogenates from human platelets were prepared by homogenization and then washed by centrifugation as described previously (see, e.g., Hoare et al., (2003) Peptides 24:1881-97).
The human VMAT2 Ki values for the compounds listed in Table 15A and Table 15B were determined using the following procedures. Compound dilution series in DMSO were generated from either powder stocks by hand, or from DMSO stocks using serial dilution on a Vantage (Hamilton), or direct dilution using an Echo 655 (Beckman). In a total volume of 0.145 to 0.150 mL in low-binding 96-well plates (Corning #3605), twelve concentrations of test compound were competed against 10 nM ^3H-dihydrotetrabenezine (American Radiolabeled Chemicals) on human platelet homogenate (30 μg membrane protein per well) in VMAT2 binding buffer (Dulbecco's phosphate buffered saline, 1 mM EDTA, pH 7.4). Following incubation at 25° C. for 90 minutes, bound radioligand was collected by rapid filtration onto either GF/B or GF/C glass fiber filters, pretreated with 0.100 polyethylenimine, using either a Unifilter-96 Harvester (PerkinElmer) or Microlab Star (Hamilton). Following harvesting the filter plates were washed with 0.8 mL VMAT2 binding buffer, and bound radioligand was quantified by scintillation counting using a Topcount NXT or Microplate Counter Microbeta (PerkinElmer).

Chain of human VMAT2 (Q05940 whole entry): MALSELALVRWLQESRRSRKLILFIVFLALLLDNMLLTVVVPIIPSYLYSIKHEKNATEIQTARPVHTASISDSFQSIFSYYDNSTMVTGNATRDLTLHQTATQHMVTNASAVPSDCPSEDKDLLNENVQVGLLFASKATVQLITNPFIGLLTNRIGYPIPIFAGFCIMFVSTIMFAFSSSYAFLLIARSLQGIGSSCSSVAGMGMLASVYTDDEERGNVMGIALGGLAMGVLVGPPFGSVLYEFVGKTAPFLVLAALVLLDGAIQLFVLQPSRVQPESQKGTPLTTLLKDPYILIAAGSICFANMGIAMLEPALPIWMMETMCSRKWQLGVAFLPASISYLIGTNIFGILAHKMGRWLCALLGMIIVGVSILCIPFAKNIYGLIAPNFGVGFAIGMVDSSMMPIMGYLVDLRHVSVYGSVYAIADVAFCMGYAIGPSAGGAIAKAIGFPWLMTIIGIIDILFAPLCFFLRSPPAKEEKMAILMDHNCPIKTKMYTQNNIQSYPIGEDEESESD

Turning to `COc1cc2c(cc1OCCOC1(C#N)CCOCC1)CCN1C[C@@H](CC(C)(C)C)[C@H](O)C[C@H]21` [Compound 4-41, 4-(2-{[(2R,3R,11bR)-3-(2,2-dimethylpropyl)-2-hydroxy-10-methoxy-1H,2H,3H,4H,6H,7H,11bH-pyrido[2,1-a]isoquinolin-9-yl]oxy}ethoxy)oxane-4-carbonitrile], in data set [1], the CLint scaled at 0.5 μM is 45.2 mL/min/kg, the half-life at 0.5 μM worked out at 28 min, the “Predicted Max. Bioavailability (% F)” value is recorded as 31 % F and the “HLM Predicted Systemic Clearance” value is 13.87 mL/min/kg. In addition, at human VMAT2, the Ki worked out at 238 nM.
The like results for `COCCOc1cc2c(cc1OC)[C@H]1C[C@@H](O)[C@H](CC(C)(C)C)CN1CC2` [Compound 4-26, (2R,3R,11bR)-3-(2,2-dimethylpropyl)-10-methoxy-9-(2-methoxyethoxy)-1H,2H,3H,4H,6H,7H,11bH-pyrido[2,1-a]isoquinolin-2-ol] were, in that order, 14.2 mL/min/kg, 88 min, 58 % F, 8.32 mL/min/kg and 14 nM.
The like results for `COc1cc2c(cc1OCC1(CC#N)CC1)CCN1C[C@@H](CC(C)(C)C)[C@H](O)C[C@H]21` [Compound 4-46, 2-[1-({[(2R,3R,11bR)-3-(2,2-dimethylpropyl)-2-hydroxy-10-methoxy-1H,2H,3H,4H,6H,7H,11bH-pyrido[2,1-a]isoquinolin-9-yl]oxy}methyl)cyclo-propyl]acetonitrile] were, in that order, 45.1 mL/min/kg, 28 min, 31 % F, 13.86 mL/min/kg and 25 nM.
The like results for `COc1cc2c(cc1OCC(C)(F)F)CCN1C[C@@H](CC(C)(C)C)[C@@H](O)C[C@H]21` [Compound 4-11, (2S,3R,11bR)-9-(2,2-difluoropropoxy)-3-(2,2-dimethylpropyl)-10-methoxy-1H,2H,3H,4H,6H,7H,11bH-pyrido[2,1-a]isoquinolin-2-ol] were, in that order, not above 2.97 mL/min/kg, not below 420 min, not below 87 % F, not above 2.59 mL/min/kg and 14 nM.
On to `COc1cc2c(cc1OCc1cccc(C#N)n1)CCN1C[C@@H](CC(C)(C)C)[C@H](O)C[C@H]21` [Compound 4-77, 6-({[(2R,3R,11bR)-3-(2,2-dimethylpropyl)-2-hydroxy-10-methoxy-1H,2H,3H,4H,6H,7H,11bH-pyrido[2,1-a]isoquinolin-9-yl]oxy}methyl)pyridine-2-carbonitrile], for which, in data set [1], the CLint scaled at 0.5 μM is 8.01 mL/min/kg, the half-life at 0.5 μM was 156 min, the “Predicted Max. Bioavailability (% F)” value is given as 71 % F and the “HLM Predicted Systemic Clearance” value is 5.72 mL/min/kg. Moreover, the inhibition constant (Ki) at human VMAT2 came out at 85 nM.
The like results for `COc1cc2c(cc1OCC1(O)CCC1)CCN1C[C@@H](CC(C)(C)C)[C@H](O)C[C@H]21` [Compound 4-25, (2R,3R,11bR)-3-(2,2-dimethylpropyl)-9-[(1-hydroxycyclobutyl)methoxy]-10-methoxy-1H,2H,3H,4H,6H,7H,11bH-pyrido[2,1-a]isoquinolin-2-ol] were, in that order, 11.4 mL/min/kg, 109 min, 64 % F, 7.26 mL/min/kg and 5.5 nM.
The like results for `COc1cc2c(cc1O[C@H]1CCOC1)CCN1C[C@@H](CC(C)(C)C)[C@H](O)C[C@H]21` [Compound 4-54, (2R,3R,11bR)-3-(2,2-dimethylpropyl)-10-methoxy-9-[(3S)-oxolan-3-yloxy]-1H,2H,3H,4H,6H,7H,11bH-pyrido[2,1-a]isoquinolin-2-ol] were, in that order, 7.59 mL/min/kg, 164 min, 73 % F, 5.5 mL/min/kg and 12 nM.
With `COc1cc2c(cc1OC[C@@H](O)C(F)(F)F)CCN1C[C@@H](CC(C)(C)C)[C@H](O)C[C@H]21` [Compound 4-49, (2R,3R,11bR)-3-(2,2-dimethylpropyl)-10-methoxy-9-[(2R)-3,3,3-trifluoro-2-hydroxypropoxy]-1H,2H,3H,4H,6H,7H,11bH-pyrido[2,1-a]isoquinolin-2-ol], in data set [1], the CLint scaled at 0.5 μM was not above 2.97 mL/min/kg, the half-life at 0.5 μM was not below 420 min, the “Predicted Max. Bioavailability (% F)” value is not below 87 % F and the “HLM Predicted Systemic Clearance” value was not above 2.59 mL/min/kg. For the same compound, at human VMAT2, the Ki came out at 20 nM.
The like results for `COc1cc2c(cc1OC1COC1)CCN1C[C@@H](CC(C)(C)C)[C@H](O)C[C@H]21` [Compound 4-30, (2R,3R,11bR)-3-(2,2-dimethylpropyl)-10-methoxy-9-(oxetan-3-yloxy)-1H,2H,3H,4H,6H,7H,11bH-pyrido[2,1-a]isoquinolin-2-ol] were, in that order, not above 2.97 mL/min/kg, not below 420 min, not below 87 % F, not above 2.59 mL/min/kg and 12 nM.
The like results for `COc1cc2c(cc1OCC1(F)COCCOC1)CCN1C[C@@H](CC(C)(C)C)[C@H](O)C[C@H]21` [Compound 4-72, (2R,3R,11bR)-3-(2,2-dimethylpropyl)-9-[(6-fluoro-1,4-dioxepan-6-yl)methoxy]-10-methoxy-1H,2H,3H,4H,6H,7H,11bH-pyrido[2,1-a]isoquinolin-2-ol] were, in that order, 15.6 mL/min/kg, 80 min, 56 % F, 8.77 mL/min/kg and 51 nM.
As for `COc1cc2c(cc1OCc1ccon1)CCN1C[C@@H](CC(C)(C)C)[C@H](O)C[C@H]21` [Compound 4-69, (2R,3R,11bR)-3-(2,2-dimethylpropyl)-10-methoxy-9-(1,2-oxazol-3-ylmethoxy)-1H,2H,3H,4H,6H,7H,11bH-pyrido[2,1-a]isoquinolin-2-ol], in data set [1], the CLint scaled at 0.5 μM was 15.5 mL/min/kg, the half-life at 0.5 μM is 80 min, the “Predicted Max. Bioavailability (% F)” value is on record as 56 % F and the “HLM Predicted Systemic Clearance” value was 8.74 mL/min/kg. The Ki at human VMAT2 came out at 32 nM.
The like results for `COc1cc2c(cc1OCC1CCC1)CCN1C[C@@H](CC(C)(C)C)[C@H](O)C[C@H]21` [Compound 4-119, (2R,3R,11bR)-9-(cyclobutylmethoxy)-3-(2,2-dimethylpropyl)-10-methoxy-1H,2H,3H,4H,6H,7H,11bH-pyrido[2,1-a]isoquinolin-2-ol] were, in that order, 134 mL/min/kg, 9 min, 13.00 % F, 17.4 mL/min/kg and 0.29 nM.

For orientation: Ki means the dissociation constant of the complex between target and ligand, obtained from inhibition or displacement.
